# Measurements taken from patent US6703371B1, “Preparations for reducing oxygen consumption during physical efforts” (priority 1999, dated 2004).
# Read-outs that look alike come from different tables or passages of the source.
# Columns and labels:
# [1] = system: test subject; test: Bicycle ergometer test at 100 W: antagonism between inactive (1st dosage) and active (2nd dosage) substances (Example 1b); type: in vivo, human; conditions: for Average heart rate after 1st dosage: 10-minute test at 100 W; for Change in the oxygen consumption after 2nd dosage / Average heart rate after 2nd dosage: 2nd dosage 1 mg; for Change in the oxygen consumption after 2nd dosage: relative to after 1st dosage; for Average heart rate before: 10-minute control test at 100 W before the 1st dosage
# Protocol: (§1) 13 to Mar. 6, 1999, with a subject in good physical condition under standard conditions. The subject was required each morning in the fasting state to perform successively (without interruption) at mechanical power output of 100 W, 125 W and 150 W, each lasting 10 minutes (total test duration 30 minutes each time). […] The heat production induced by mechanical exertion was calculated from the changes in the heart rate. An alternative possibility is also to determine it on the basis of the increase in humidity caused by the perspiration (the tests are carried out in a closed room) or reduction in weight (1 g of water=2.26 kJ). […] The values indicated in table la for the “average heart rate” are in each case averages over the 30-minute duration of the test; relative values for the oxygen consumption were established on the basis of the heart rates in a known manner, and the relative values indicated in Table 1a are based on the oxygen consumption on the first day (=100%); the values listed in the column “heat production” in Table 1a give the percentage deviation of the heat production, established on the basis of the perspiration, from the average from all the tests.
# (§2) It is known that the oxygen uptake can be determined by measuring the heart rate as a function of the mechanical exertion. This ergometric method is based on establishing the oxygen transport volume through the action of the heart. Since the stroke volume is essentially constant irrespective of the intensity of the mechanical work, and the increased oxygen demand caused by the increase in work results in an increase in the heart rate, the quantity of the transported oxygen can be established by determining the additional heartbeats caused by the work. A 3-stage ergometer as recommended by the World Health Organization (WHO) is used in physiology research institutes and fitness clubs around the world.
# [2] = system: test subject; type: in vivo, human; conditions: Homo sapiens, 10 min
# [3] = Oxygen-sparing action during physical work, general findings in the description; type: in vivo; conditions: result in words; for Oxygen demand after administration: even occasionally increased
# [4] = system: test subject; test: Bicycle ergometer test at 100 W: active ingredient, sucrose, further active ingredient, amino acid/vitamin product (Example 1c); type: in vivo, human; conditions: for Average heart rate after 4th dos.: 1 mg series, 4th dosage 100 mg of Na glutamate, 0.3 mg of folic acid, 5 μg of cyanocobalamin in 10 mg of gelatin; for Average heart rate after 3rd dos.: 3rd dosage further 1 mg of active ingredient after sucrose; for Average heart rate after 2nd dos.: after 1 mg of active ingredient, then 2nd dosage 2.5 g of sucrose
# Protocol: as §1, §2
# [5] = system: test subject; test: as above; type: in vivo, human; conditions: for Change in oxygen consumption after 2nd dos. / Change in oxygen consumption after 4th dos.: 1 mg series; for Change in oxygen consumption after 2nd dos.: 2nd dosage 2.5 g of sucrose; for Change in oxygen consumption after 2nd dos. / Change in oxygen consumption after 4th dos. / Change in oxygen consumption after 3rd dos.: relative to preceding dosage; for Change in oxygen consumption after 4th dos.: 4th dosage Na glutamate/folic acid/cyanocobalamin/gelatin; for Average heart rate after 1st dos.: 1st dosage 1 mg as dilute aqueous solution, 10-minute test at 100 W; for Change in oxygen consumption after 3rd dos.: 3rd dosage further 1 mg of active ingredient
# [6] = 1st dosage 10 mg in 20 ml of water
# [7] = Homo sapiens, 1st dosage 10 mg, 100 W, read-out: Change in the oxygen consumption after 1st dosage
# [8] = read-out: Change in the oxygen demand
# [9] = read-out: Heat production (deviation from the average of all the tests)
# [10] = after 50 mg of opipramol, 100 W
# [11] = after 1st dosage of 50 mg of opipramol, 100 W
smiles,measurement,setting,value
O=C1CN=C(c2ccccc2)c2cc([N+](=O)[O-])ccc2N1 [nitrazepam],Average heart rate after 1st dosage,[1]; [6],131.4 per minute
same,change in vivo at 10 mg,[1]; [7],21%
same,change in vivo at 1 mg,[2]; [8],0%
same,change in vivo at 1 mg,[2]; [9],7%
same,Oxygen demand after administration,[3],not reduced
O=C1Nc2ccc(Cl)cc2C(c2ccccc2Cl)=NC1O (stereo not drawn) [lorazepam],Average heart rate after 1st dosage,[1]; 1st dosage 1 mg in 20 ml of water,121.5 per minute
same,change in vivo at 1 mg,"[1]; Homo sapiens, 1st dosage 1 mg, 100 W, read-out: Change in the oxygen consumption after 1st dosage",34%
same,Oxygen demand after administration,[3],not reduced
OCCN1CCN(CCCN2c3ccccc3C=Cc3ccccc32)CC1 [opipramol],Oxygen demand after administration,[3],not reduced
O=C1Nc2ccc(Cl)cc2C(c2ccccc2)=NC1O (stereo not drawn) [oxazepam],change in vivo at 7 mg,"[1]; Homo sapiens, 1st dosage 7 mg, 100 W, read-out: Change in the oxygen consumption after 1st dosage",33%
same,change in vivo at 1 mg,[2]; [8],0%
same,change in vivo at 1 mg,[2]; [9],7%
CN1CCC[C@@H]1CCO[C@](C)(c1ccccc1)c1ccc(Cl)cc1 [clemastine],Suitability for reducing the oxygen consumption during physical work,[3],suitable
CN1CCN(C2=Nc3ccccc3Sc3ccc(Cl)cc32)CC1 [clothiapine],Change in the oxygen consumption after 2nd dosage,"[1]; after 25 mg of clomipramine, 100 W",−70%
same,Change in the oxygen consumption after 2nd dosage,[1]; [10],−65%
same,Average heart rate after 2nd dosage,"[1]; after 1st dosage of 25 mg of clomipramine, 100 W",100.0 per minute
same,Average heart rate after 2nd dosage,[1]; [11],88.9 per minute
same,Suitability for reducing the oxygen consumption during physical work,[3],suitable
same,Average heart rate after 4th dos.,[4],82.2 per minute
same,Average heart rate after 3rd dos.,[4],113.9 per minute
same,Average heart rate after 2nd dos.,[4],112.4 per minute
same,Change in oxygen consumption after 2nd dos.,[5],+78%
same,Change in oxygen consumption after 4th dos.,[5],−63%
same,Average heart rate after 1st dos.,[5],73.2 per minute
same,Change in oxygen consumption after 3rd dos.,[5],+3%
"CN(C)CC/C=C1/c2ccccc2Sc2ccc(Cl)cc21 [chlorprothixen, chlorprothixene]",Average heart rate after 1st dosage,[1]; [6],124.6 per minute
same,Change in the oxygen consumption after 1st dosage,"[1]; 1st dosage 10 mg, 100 W",+46%
same,Average heart rate before,[1],101.7 per minute
same,Oxygen demand after administration,[3],not reduced
CN(C)CCN1C(=O)c2ccccc2N(C)c2ccccc21 [dibenzepin],Change in the oxygen consumption after 2nd dosage,[1]; [10],−59%
same,Average heart rate after 2nd dosage,[1]; [11],88.3 per minute
same,Suitability for reducing the oxygen consumption during physical work,[3],suitable
same,Average heart rate after 4th dos.,[4],86.4 per minute
same,Average heart rate after 3rd dos.,[4],115 per minute
same,Average heart rate after 2nd dos.,[4],111.5 per minute
same,Change in oxygen consumption after 2nd dos.,[5],+69%
same,Change in oxygen consumption after 4th dos.,[5],−57%
same,Average heart rate after 1st dos.,[5],77.2 per minute
same,Change in oxygen consumption after 3rd dos.,[5],0%
CN(C)CCC=C1c2ccccc2CCc2ccccc21 [amitriptyline],Average heart rate after 1st dosage,[1]; [6],119.3 per minute
same,change in vivo at 10 mg,[1]; [7],71%
same,Oxygen demand after administration,[3],not reduced
CN1C(=O)CC(=O)N(c2ccccc2)c2cc(Cl)ccc21 [clobazam],change in vivo at 1 mg,[2]; [8],-51%
same,change in vivo at 1 mg,[2]; [9],-49%
Cl.Cl.OCCN1CCN(CCC=C2c3ccccc3Sc3ccc(C(F)(F)F)cc32)CC1 (mixture of isomers) [flupentixol],Average heart rate after 1st dosage,[1]; 1st dosage 0.5 mg in 20 ml of water,118.4 per minute
same,Change in the oxygen consumption after 1st dosage,"[1]; 1st dosage 0.5 mg, 100 W",+32%
same,Average heart rate before,[1],102.6 per minute
same,Oxygen demand after administration,[3],not reduced
